Some targets named below: Mu-type opioid receptor (Homo sapiens, UniProt P35372); Histamine H3 receptor (Homo sapiens, UniProt Q9Y5N1); D(1A) dopamine receptor (Homo sapiens, UniProt P21728).
The target of the next assay is T1, Progesterone receptor (Homo sapiens, UniProt P06401).
T1 sequence (P06401 whole entry): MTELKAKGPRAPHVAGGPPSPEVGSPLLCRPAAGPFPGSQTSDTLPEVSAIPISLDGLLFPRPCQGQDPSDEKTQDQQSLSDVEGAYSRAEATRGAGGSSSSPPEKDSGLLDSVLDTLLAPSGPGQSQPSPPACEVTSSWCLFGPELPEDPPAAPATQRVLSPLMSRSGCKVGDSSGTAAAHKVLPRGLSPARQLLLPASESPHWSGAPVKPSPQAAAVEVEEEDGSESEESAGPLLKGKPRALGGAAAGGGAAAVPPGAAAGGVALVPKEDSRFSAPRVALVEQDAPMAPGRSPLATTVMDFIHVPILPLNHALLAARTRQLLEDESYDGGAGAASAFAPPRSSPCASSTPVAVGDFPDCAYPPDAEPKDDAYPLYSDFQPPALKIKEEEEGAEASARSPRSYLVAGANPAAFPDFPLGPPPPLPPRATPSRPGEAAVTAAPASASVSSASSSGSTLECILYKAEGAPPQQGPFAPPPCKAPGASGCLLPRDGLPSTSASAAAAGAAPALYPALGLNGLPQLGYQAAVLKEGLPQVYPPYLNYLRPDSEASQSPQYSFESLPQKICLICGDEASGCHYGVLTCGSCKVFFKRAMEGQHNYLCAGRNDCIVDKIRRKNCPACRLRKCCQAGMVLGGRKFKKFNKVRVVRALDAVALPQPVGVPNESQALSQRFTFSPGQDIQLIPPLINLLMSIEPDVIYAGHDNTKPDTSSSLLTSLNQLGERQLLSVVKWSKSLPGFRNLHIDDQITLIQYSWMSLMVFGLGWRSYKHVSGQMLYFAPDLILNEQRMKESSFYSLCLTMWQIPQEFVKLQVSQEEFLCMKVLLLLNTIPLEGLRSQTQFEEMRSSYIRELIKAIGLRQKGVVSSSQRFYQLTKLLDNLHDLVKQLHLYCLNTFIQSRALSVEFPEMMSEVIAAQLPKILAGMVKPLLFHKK

In assay [1] the target is T2, Prostaglandin G/H synthase 1 (Homo sapiens, UniProt P23219). Type of assay: functional.
The next assay has as its target T3, Adenosine receptor A3 (Homo sapiens, UniProt P0DMS8).
T3 sequence (P0DMS8 whole entry): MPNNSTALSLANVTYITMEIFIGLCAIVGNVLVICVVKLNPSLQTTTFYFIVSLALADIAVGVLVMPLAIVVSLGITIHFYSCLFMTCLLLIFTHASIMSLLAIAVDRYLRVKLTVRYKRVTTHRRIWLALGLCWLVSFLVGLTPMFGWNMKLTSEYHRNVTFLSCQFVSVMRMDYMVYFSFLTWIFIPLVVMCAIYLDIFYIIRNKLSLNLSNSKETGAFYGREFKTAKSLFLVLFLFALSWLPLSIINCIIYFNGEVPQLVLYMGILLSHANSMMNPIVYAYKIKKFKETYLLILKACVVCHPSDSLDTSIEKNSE

Assay [2] has as its target cGMP-inhibited 3',5'-cyclic phosphodiesterase 3A (Homo sapiens, UniProt Q14432). The format is functional.
For assay [3], the target named is T4, Alpha-1A adrenergic receptor (Homo sapiens, UniProt P35348).
T4 sequence (P35348 whole entry): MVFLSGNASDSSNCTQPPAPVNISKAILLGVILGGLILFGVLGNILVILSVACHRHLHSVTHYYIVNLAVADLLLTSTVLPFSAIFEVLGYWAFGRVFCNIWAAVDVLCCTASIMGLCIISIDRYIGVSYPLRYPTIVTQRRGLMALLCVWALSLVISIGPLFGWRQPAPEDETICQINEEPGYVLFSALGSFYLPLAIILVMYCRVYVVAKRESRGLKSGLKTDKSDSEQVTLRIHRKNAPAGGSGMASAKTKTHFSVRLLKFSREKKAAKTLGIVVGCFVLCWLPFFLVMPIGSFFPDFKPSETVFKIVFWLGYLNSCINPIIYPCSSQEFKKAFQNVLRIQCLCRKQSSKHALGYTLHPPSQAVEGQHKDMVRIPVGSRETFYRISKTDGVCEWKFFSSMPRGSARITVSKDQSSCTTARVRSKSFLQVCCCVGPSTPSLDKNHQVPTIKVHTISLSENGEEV
The format is functional, cell-based.

Assay [4] concerns the target Vascular endothelial growth factor receptor 2 (Homo sapiens, UniProt P35968). Type of assay: functional.
Assay [5] addresses Sodium-dependent serotonin transporter (Homo sapiens, UniProt P31645).
The target in assay [6] is Sodium-dependent noradrenaline transporter (Homo sapiens, UniProt P23975).
The target of the next assay is Acetylcholinesterase (Homo sapiens, UniProt P22303). The format is functional.
The target in assay [7] is T5, Amine oxidase [flavin-containing] A (Homo sapiens, UniProt P21397).
T5 sequence (P21397 whole entry): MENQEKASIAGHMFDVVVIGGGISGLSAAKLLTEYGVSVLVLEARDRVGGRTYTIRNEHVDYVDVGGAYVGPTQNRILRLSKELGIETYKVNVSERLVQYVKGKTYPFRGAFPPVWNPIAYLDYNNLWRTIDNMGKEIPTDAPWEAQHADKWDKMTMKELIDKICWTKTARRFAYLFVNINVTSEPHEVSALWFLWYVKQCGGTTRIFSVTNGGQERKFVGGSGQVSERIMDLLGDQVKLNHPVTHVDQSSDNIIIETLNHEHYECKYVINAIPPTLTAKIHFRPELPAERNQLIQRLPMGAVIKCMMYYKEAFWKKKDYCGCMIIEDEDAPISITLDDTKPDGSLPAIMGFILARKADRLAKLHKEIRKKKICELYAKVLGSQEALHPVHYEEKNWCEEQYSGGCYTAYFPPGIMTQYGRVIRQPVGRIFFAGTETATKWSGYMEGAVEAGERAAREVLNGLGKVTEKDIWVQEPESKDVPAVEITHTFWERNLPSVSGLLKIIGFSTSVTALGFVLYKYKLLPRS
Type of assay: functional.

Assay [8] deals with T2, Prostaglandin G/H synthase 1. The format is functional. This is another data set of the same source.
Assay [9] concerns the target 5-hydroxytryptamine receptor 2B (Homo sapiens, UniProt P41595). Type of assay: functional, cell-based.

Bounds are passed on as bounds.
Further: assay procedure not described here.

Sequence of cGMP-inhibited 3',5'-cyclic phosphodiesterase 3A (Q14432 whole entry): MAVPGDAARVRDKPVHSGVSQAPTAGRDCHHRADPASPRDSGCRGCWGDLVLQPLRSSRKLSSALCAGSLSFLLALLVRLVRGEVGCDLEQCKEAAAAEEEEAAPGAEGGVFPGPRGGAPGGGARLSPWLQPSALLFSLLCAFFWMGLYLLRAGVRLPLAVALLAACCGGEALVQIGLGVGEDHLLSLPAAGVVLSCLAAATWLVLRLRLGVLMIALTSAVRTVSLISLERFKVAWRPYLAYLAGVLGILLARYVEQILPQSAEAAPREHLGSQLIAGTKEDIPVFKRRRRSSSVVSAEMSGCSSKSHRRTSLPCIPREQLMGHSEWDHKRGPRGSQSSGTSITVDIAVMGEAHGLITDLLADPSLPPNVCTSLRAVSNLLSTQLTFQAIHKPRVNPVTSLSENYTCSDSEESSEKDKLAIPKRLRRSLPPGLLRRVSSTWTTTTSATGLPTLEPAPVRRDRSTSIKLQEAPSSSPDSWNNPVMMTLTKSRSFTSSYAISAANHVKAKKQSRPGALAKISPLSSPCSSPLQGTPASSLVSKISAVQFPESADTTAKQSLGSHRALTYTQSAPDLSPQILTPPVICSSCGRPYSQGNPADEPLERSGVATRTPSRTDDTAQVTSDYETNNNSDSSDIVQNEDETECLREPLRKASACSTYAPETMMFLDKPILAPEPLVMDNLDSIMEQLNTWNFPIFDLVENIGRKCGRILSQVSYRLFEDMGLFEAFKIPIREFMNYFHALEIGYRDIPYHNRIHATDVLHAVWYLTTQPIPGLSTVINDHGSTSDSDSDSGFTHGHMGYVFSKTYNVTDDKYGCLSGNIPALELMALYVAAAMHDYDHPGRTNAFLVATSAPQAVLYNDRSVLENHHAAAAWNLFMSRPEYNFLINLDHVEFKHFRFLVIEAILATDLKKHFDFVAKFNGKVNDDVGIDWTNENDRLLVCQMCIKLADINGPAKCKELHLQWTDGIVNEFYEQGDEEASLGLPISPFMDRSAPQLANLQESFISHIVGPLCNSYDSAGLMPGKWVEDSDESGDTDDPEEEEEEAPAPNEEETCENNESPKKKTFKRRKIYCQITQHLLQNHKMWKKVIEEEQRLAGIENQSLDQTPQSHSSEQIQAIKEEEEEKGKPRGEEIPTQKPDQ
Sequence of D(1A) dopamine receptor (P21728 whole entry): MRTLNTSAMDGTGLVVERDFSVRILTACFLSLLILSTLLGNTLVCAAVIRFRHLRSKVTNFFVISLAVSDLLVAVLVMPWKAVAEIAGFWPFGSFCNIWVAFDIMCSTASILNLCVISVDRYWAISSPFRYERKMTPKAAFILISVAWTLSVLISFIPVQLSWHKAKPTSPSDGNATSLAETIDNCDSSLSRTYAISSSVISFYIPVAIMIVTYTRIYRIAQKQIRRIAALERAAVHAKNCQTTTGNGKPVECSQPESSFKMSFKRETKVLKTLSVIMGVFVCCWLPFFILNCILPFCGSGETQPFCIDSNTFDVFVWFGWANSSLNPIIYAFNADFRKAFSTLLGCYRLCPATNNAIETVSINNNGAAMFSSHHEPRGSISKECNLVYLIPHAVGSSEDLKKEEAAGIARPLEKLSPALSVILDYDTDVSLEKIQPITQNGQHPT
Sequence of Histamine H3 receptor (Q9Y5N1 whole entry): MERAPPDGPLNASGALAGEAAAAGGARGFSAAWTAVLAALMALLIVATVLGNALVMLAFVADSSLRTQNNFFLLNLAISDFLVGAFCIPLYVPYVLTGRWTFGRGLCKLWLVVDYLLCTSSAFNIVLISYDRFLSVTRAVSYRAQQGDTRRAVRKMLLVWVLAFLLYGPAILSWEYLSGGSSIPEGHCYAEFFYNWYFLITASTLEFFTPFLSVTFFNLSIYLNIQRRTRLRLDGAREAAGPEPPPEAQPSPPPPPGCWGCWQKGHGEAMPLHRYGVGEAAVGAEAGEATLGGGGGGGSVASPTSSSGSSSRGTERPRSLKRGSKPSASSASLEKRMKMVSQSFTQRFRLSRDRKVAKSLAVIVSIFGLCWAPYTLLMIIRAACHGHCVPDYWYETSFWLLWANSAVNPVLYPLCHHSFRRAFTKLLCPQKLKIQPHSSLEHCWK
Sequence of Vascular endothelial growth factor receptor 2 (P35968 whole entry): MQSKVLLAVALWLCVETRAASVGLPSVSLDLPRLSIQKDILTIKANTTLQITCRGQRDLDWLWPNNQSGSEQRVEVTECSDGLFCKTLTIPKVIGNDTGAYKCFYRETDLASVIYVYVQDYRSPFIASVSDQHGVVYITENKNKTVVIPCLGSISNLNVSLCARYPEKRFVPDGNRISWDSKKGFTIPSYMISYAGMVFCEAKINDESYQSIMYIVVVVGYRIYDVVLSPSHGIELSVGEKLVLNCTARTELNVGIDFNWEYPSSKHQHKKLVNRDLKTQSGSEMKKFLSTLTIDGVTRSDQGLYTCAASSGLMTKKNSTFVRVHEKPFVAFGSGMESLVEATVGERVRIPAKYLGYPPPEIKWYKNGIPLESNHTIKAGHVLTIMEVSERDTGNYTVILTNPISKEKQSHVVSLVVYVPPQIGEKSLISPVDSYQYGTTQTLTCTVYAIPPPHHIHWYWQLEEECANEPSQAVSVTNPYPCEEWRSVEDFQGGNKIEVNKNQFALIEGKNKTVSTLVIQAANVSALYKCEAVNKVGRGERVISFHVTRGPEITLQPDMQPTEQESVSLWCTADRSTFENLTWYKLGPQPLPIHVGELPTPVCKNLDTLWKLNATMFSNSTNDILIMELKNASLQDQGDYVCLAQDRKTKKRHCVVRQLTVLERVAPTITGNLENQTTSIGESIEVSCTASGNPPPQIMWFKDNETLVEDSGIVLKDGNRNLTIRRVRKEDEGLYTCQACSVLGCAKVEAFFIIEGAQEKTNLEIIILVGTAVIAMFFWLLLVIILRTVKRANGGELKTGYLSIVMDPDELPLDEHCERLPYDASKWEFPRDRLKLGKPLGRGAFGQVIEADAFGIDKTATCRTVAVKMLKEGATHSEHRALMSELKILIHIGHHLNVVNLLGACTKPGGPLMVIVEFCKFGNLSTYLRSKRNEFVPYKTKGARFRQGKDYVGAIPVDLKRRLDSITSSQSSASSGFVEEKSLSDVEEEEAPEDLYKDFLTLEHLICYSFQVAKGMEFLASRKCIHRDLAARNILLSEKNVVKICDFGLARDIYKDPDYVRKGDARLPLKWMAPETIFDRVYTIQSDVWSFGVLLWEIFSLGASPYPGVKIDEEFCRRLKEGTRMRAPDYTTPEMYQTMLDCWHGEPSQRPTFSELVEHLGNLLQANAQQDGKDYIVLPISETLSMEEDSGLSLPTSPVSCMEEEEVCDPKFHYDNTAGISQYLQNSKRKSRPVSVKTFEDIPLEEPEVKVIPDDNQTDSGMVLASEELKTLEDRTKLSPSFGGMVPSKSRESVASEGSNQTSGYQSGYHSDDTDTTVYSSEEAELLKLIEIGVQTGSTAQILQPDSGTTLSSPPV
Sequence of Sodium-dependent serotonin transporter (P31645 whole entry): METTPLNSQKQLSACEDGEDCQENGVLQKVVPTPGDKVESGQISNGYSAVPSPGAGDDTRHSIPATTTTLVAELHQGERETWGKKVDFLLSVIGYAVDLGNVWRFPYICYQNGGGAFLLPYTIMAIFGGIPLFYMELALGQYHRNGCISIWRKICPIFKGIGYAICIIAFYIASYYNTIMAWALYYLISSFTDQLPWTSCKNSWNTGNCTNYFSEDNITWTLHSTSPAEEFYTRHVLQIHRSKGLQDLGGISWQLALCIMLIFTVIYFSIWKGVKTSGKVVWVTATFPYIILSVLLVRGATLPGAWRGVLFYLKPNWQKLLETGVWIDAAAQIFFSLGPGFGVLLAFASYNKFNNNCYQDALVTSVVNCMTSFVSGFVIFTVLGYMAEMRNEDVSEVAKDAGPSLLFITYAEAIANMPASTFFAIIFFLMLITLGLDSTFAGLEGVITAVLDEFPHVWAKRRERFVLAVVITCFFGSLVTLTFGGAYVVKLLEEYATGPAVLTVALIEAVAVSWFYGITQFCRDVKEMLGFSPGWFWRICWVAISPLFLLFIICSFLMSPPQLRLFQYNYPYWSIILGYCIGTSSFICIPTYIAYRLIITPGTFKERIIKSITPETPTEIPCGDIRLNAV
Sequence of 5-hydroxytryptamine receptor 2B (P41595 whole entry): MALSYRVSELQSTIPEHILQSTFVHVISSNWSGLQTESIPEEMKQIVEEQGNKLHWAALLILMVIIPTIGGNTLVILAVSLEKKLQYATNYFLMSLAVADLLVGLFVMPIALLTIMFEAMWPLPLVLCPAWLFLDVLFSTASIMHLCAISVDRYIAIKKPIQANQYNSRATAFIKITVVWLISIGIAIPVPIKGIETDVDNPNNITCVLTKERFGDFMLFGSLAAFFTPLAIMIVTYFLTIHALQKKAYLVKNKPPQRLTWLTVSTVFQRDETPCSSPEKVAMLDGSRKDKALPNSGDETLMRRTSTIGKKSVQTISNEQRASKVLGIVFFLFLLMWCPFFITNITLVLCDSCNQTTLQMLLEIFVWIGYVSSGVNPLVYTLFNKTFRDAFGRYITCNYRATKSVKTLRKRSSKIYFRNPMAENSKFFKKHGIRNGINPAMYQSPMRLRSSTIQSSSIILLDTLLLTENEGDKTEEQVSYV
Sequence of Mu-type opioid receptor (P35372 whole entry): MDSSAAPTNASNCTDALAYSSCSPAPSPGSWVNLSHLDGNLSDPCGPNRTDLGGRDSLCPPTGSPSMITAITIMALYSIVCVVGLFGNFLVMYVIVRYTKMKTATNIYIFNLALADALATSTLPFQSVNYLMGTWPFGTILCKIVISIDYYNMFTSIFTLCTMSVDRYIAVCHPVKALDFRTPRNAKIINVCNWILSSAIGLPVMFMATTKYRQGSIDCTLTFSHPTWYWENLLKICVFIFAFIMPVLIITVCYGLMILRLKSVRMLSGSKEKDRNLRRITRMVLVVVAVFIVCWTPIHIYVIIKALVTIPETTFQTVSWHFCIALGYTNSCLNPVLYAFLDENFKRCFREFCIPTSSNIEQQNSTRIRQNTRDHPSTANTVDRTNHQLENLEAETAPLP

One may read the AC50 as the concentration at which the activity in the assay is half-maximal. Consider `CC(=O)Oc1c(C)c(C)c2c(c1C)CC[C@@](C)(CCC[C@H](C)CCC[C@H](C)CCCC(C)C)O2`, for which the AC50 was greater than 30 µM at Progesterone receptor; greater than 30 µM in assay [1]; greater than 30 µM at Adenosine receptor A3; greater than 30 µM on Mu-type opioid receptor; greater than 30 µM on Histamine H3 receptor; 0.933 µM in [2]. The AC50 (in assay [3]; in assay [4]; in [5]; at D(1A) dopamine receptor; in assay [6]; on Acetylcholinesterase) was greater than 30 µM throughout. In addition, the AC50 in assay [7], in assay [8] and in [9] was greater than 30 µM in each case.

`CC[C@@H](C(N)=O)N1CCCC1=O`: the AC50 (on Progesterone receptor; in assay [1]; on Adenosine receptor A3; at Mu-type opioid receptor; at Histamine H3 receptor; in assay [2]) was greater than 30 µM each time. The AC50 (in assay [3]; in assay [4]; in assay [5]; on D(1A) dopamine receptor; in assay [6]; on Acetylcholinesterase) was greater than 30 µM each time. The AC50 in assay [7], in assay [8] and in assay [9] was greater than 30 µM in each case.

Regarding `N=C1CCCN1Cc1[nH]c(=O)[nH]c(=O)c1Cl`, the AC50 (on Progesterone receptor; in [1]; on Adenosine receptor A3; at Mu-type opioid receptor; at Histamine H3 receptor; in assay [2]) was greater than 30 µM in each case. Further, the AC50 (in [3]; in [4]; in assay [5]; on D(1A) dopamine receptor; in assay [6]; on Acetylcholinesterase) was greater than 30 µM throughout. The AC50 in assay [7], in assay [8] and in assay [9] was greater than 30 µM throughout.

As for `CC(=O)[C@@]1(O)CC[C@H]2[C@@H]3C=C(C)C4=CC(=O)CC[C@]4(C)[C@H]3CC[C@@]21C`, the AC50 at Progesterone receptor was 0.285 µM; in assay [1], greater than 30 µM; on Adenosine receptor A3, greater than 30 µM; on Mu-type opioid receptor, greater than 30 µM; on Histamine H3 receptor, greater than 30 µM; in assay [2], greater than 30 µM. Also, the AC50 (in assay [3]; in assay [4]; in [5]; on D(1A) dopamine receptor; in assay [6]; on Acetylcholinesterase) was greater than 30 µM throughout. The AC50 in assay [7], in [8] and in [9] was greater than 30 µM in each case.

As for `CCOC(=O)[C@H](CCc1ccccc1)N[C@@H](C)C(=O)N1CC2(C[C@H]1C(=O)O)SCCS2`, the AC50 (on Progesterone receptor; in [1]; on Adenosine receptor A3; at Mu-type opioid receptor; at Histamine H3 receptor; in assay [2]) was greater than 30 µM throughout. Also, the AC50 is greater than 30 µM in assay [3]; greater than 10 µM in assay [4]; greater than 30 µM in assay [5]; greater than 30 µM on D(1A) dopamine receptor; greater than 30 µM in assay [6]; greater than 30 µM at Acetylcholinesterase. In addition, the AC50 in assay [7], in assay [8] and in [9] was greater than 30 µM in each case.

`CC(=O)c1ccc2c(c1)N(CCCN(C)C)c1ccccc1S2` [ACEPROMAZINE]: the AC50 on Progesterone receptor is greater than 30 µM; in assay [1] it was greater than 30 µM; at Adenosine receptor A3, greater than 30 µM; on Mu-type opioid receptor, 2.42 µM; at Histamine H3 receptor it was greater than 30 µM; in assay [2], greater than 30 µM. In addition, the AC50 in assay [3] was greater than 30 µM; in assay [4], greater than 30 µM; in assay [5], 0.145 µM; on D(1A) dopamine receptor it was 0.0259 µM; in assay [6], 0.161 µM; on Acetylcholinesterase, greater than 30 µM. Further, the AC50 in assay [7], in assay [8] and in [9] was greater than 30 µM throughout.

`C[S+](CC[C@H](N)C(=O)[O-])C[C@H]1O[C@@H](n2cnc3c(N)ncnc32)[C@H](O)[C@@H]1O` (some centres undefined) [ADEMETIONINE]: the AC50 is greater than 30 µM at Progesterone receptor; greater than 30 µM in assay [1]; 0.174 µM on Adenosine receptor A3; greater than 30 µM at Mu-type opioid receptor; greater than 30 µM on Histamine H3 receptor; greater than 30 µM in assay [2]. Further, the AC50 is greater than 30 µM in [3]; 19.4 µM in [4]; greater than 30 µM in [5]; greater than 30 µM on D(1A) dopamine receptor; greater than 30 µM in assay [6]; greater than 30 µM at Acetylcholinesterase. Further, the AC50 in assay [7], in assay [8] and in [9] was greater than 30 µM throughout.

Regarding `Nc1ccncc1N` [AMIFAMPRIDINE], the half-maximal activity concentration (AC50) (at Progesterone receptor; in assay [1]; on Adenosine receptor A3; at Mu-type opioid receptor; on Histamine H3 receptor; in [2]) was greater than 30 µM each time. Also, the AC50 (in assay [3]; in assay [4]; in [5]; on D(1A) dopamine receptor; in assay [6]; on Acetylcholinesterase) was greater than 30 µM each time. The AC50 in assay [7], in assay [8] and in assay [9] was greater than 30 µM throughout.

Take `NNc1nnc(NN)c2ccccc12` [DIHYDRALAZINE]: the AC50 in [1] is 0.434 µM; at Adenosine receptor A3, 0.197 µM; on Mu-type opioid receptor, 25.6 µM; at Histamine H3 receptor, greater than 30 µM; in assay [2], greater than 30 µM; in [3] it was greater than 30 µM. Further, the AC50 in assay [4] was greater than 30 µM; in assay [5] it was greater than 30 µM; on D(1A) dopamine receptor, greater than 30 µM; in assay [6], greater than 30 µM; on Acetylcholinesterase it was greater than 30 µM; in assay [7], 26.4 µM. Besides, the AC50 in assay [8] was 0.344 µM; in [9], greater than 30 µM.

These data come from ChEMBL document CHEMBL5291721, “A preclinical secondary pharmacology resource illuminates target-adverse drug reaction associations of marketed drugs” (Nat Commun, 2023).
